Results taken from patent US8637501B2, “Azinone-substituted azepino[b]indole and pyrido-pyrrolo-azepine MCH-1 antagonists, methods of making, and use thereof” (Albany Molecular Research, Inc., priority 2009, dated 2014).
Counter-ions that a name gives are not always drawn.

Biological target: human MCH-1 receptor (Homo sapiens (Human), UniProt Q99705)
Assay: Binding Assay for Human Melanin-Concentrating Hormone (MCH-1) Receptor
Conditions: radioligand displacement, membranes from CHO-K1 cells expressing human MCH-1 receptor; Ki from IC50 by Cheng Prusoff equation; read-out: MCH1 Ki
Procedure: Binding Assay for Human Melanin-Concentrating Hormone (MCH-1) Receptor
Evaluation of the affinity of compounds for the human MCH-1 receptor was accomplished using 4-(3,4,5-tritritiumbenzyloxy)-1-(1-(2-(pyrrolidin-1-yl)ethyl)-1H-indazol-5-yl)pyridin-2(1H)-one and membranes prepared from stable CHO-K1 cells expressing the human MCH-1 receptor obtained from Euroscreen (Batch 1138). Cell membrane homogenates (8.92 μg protein) were incubated for 60 min at 25° C. with 1.4 nM of the [^3H]-labeled compound in the absence or presence of the test compound in 50 mM Tris-HCl buffer, pH 7.4. Nonspecific binding was determined in the presence of 50 μM 1-(5-(4-cyanophenyl)bicyclo[3.1.0]hexan-2-yl)-3-(4-fluoro-3-(trifluoromethyl)phenyl)-1-(3-(4-methylpiperazin-1-yl)propyl)urea. Following incubation, the samples were filtered rapidly under vacuum through Skatron 11731 filters, pre-soaked in 0.5% polyethylenimine, and washed with ice-cold 50 mM Tris-HCl buffer, pH 7.4, (wash setting 9,9,0) using a Skatron cell harvester. The filters were counted for radioactivity in a liquid scintillation counter (Tri-Carb 2100TR, Packard) using a scintillation cocktail (Ultima Gold MV, Perkin Elmer).
The results are expressed as a percent inhibition of the control radioligand specific binding. The IC50 value (concentration causing a half-maximal inhibition of control specific binding) and Hill coefficient (nH) were determined by non-linear regression analysis of the competition curve using Hill equation curve fitting. The inhibition constant (Ki) was calculated from the Cheng Prusoff equation: (Ki=IC50/(1+(L/KD)), where L=concentration of radioligand in the assay, and KD=affinity of the radioligand for the receptor.

Sequence of human MCH-1 receptor (Q99705 whole entry): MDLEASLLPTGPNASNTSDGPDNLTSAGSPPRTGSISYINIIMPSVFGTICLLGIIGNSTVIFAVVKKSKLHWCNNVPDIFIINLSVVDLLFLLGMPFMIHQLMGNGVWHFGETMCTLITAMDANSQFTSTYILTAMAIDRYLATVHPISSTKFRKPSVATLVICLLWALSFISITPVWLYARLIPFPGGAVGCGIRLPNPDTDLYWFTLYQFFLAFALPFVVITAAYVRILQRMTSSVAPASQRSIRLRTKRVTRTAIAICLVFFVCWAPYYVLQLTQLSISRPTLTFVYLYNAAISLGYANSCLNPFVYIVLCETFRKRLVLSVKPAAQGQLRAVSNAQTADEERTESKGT

| SMILES | Ki |
| --- | --- |
| Cl.Cn1c2c(c3ccc(-n4ccc(-c5ccc(C(F)(F)F)cc5)cc4=O)cc31)CCNCC2 [Example 41, 1-(6-Methyl-1,2,3,4,5,6-hexahydroazepino[4,5-b]indol-8-yl)-4(4-trifluoromethyl)phenyl)pyridin-2(1H)-one hydrochloride] | 10 nM |
| CC(C)N1CCc2[nH]c3cc(-n4ccc(OCc5ccc(F)cn5)cc4=O)ccc3c2CC1 [Example 42, 4-((5-Fluoropyridin-2-yl)methoxy)-1-(3-isopropyl-1,2,3,4,5,6-hexahydroazepino[4,5-b]indol-8-yl)-pyridin-2(1H)-one hydrochloride] | 17.8 nM |
| CN1CCc2c(n(C)c3cc(-n4ccc(OCc5ccccc5)cc4=O)ccc23)CC1 [Example 44, 4-(benzyloxy)-1-(3,6-dimethyl-1,2,3,4,5,6-hexahydroazepino[4,5-b]indol-8-yl)pyridin-2(1H)-one hydrochloride] | 11.6 nM |
| CC(=O)N1CCc2c(n(C)c3cc(-n4ccc(-c5ccc(C(F)(F)F)nc5)cc4=O)ccc23)CC1 [Example 46, 1-(3-Acetyl-6-methyl-1,2,3,4,5,6-hexahydroazepino[4,5-b]indol-8-yl)-4-(6-(trifluoromethyl)pyridin-3-yl)pyridin-2(1H)-one] | 47 nM |
| Cn1c2c(c3ccc(-n4ccc(-c5ccc(C(F)(F)F)cc5)nc4=O)cc31)CCNCC2 [Example 49, 1-(6-Methyl-1,2,3,4,5,6-hexahydroazepino[4,5-b]indol-8-yl)-4-(4-(trifluoromethyl)phenyl)pyrimidin-2(1H)-one hydrochloride] | 17 nM |
| Cn1c2c(c3ccc(N4CCN(CCc5ccc(Cl)cc5)CC4=O)cc31)CCNCC2 [Example 53, 4-(4-Chlorophenethyl)-1-(6-methyl-1,2,3,4,5,6-hexahydroazepino[4,5-b]indol-8-yl)piperazin-2-one dihydrochloride] | 13 nM |
| Cn1c2c(c3ccc(N4CCN(CCc5ccccn5)CC4=O)cc31)CNCCC2 [Example 59, 1-(6-Methyl-1,2,3,4,5,6-hexahydroazepino[4,3-b]indol-8-yl)-4-(2-(pyridin-2-yl)ethyl)piperazin-2-one dihydrochloride] | 44 nM |
| Cn1c2c(c3ccc(-n4ncc(OCc5ccc(C(F)(F)F)nc5)cc4=O)cc31)CNCCC2 [Example 60, 2-(6-Methyl-1,2,3,4,5,6-hexahydroazepino[4,3-b]indol-8-yl)-5-((6-(trifluoromethyl)pyridin-3-yl)methoxy)pyridazin-3(2H)-one hydrochloride] | 21 nM |
| CN1CCCc2c(c3ccc(-n4ccc(-c5ccc(C(F)(F)F)nn5)cc4=O)cc3n2C)C1 [Example 69, 1-(2,6-Dimethyl-1,2,3,4,5,6-hexahydroazepino[4,3-b]indol-8-yl)-4-(6-(trifluoromethyl)pyridazin-3-yl)pyridin-2(1H)-one hydrochloride] | 12 nM |
| CN1CCCc2c(c3ccc(-n4ccc(OCc5ccc(F)cn5)cc4=O)cc3n2C)C1 [Example 70, 1-(2,6-Dimethyl-1,2,3,4,5,6-hexahydroazepino[4,3-b]indol-8-yl)-4-((5-fluoropyridin-2-yl)methoxy)pyridin-2(1H)-one hydrochloride] | 8.8 nM |
| CN1CCCc2c(c3ccc(-n4ccc(OCc5ccc(C(F)(F)F)nc5)cc4=O)cc3n2C)C1 [Example 71, 1-(2,6-Dimethyl-1,2,3,4,5,6-hexahydroazepino[4,3-b]indol-8-yl)-4-((6-(trifluoromethyl)pyridin-3-yl)methoxy)pyridin-2(1H)-one hydrochloride] | 8.5 nM |
| CCN1CCCc2c(c3ccc(-n4ccc(OCc5ccc(F)cn5)cc4=O)cc3n2C)C1 [Example 73, 1-(2-Ethyl-6-methyl-1,2,3,4,5,6-hexahydroazepino[4,3-b]indol-8-yl)-4-((5-fluoropyridin-2-yl)methoxy)pyridin-2(1H)-one hydrochloride] | 9.4 nM |

Results, then the molecule that gave them:

| Ki | SMILES |
| --- | --- |
| 7.2 nM | Cl.Cn1c2c(c3ccc(-n4ccc(OCc5ccc(F)cn5)cc4=O)cc31)CCNCC2 [Example 40, 4-((5-Fluoropyridin-2-yl)methoxy-1-(6-methyl-1,2,3,4,5,6-hexahydroazepino[4,5-b]indol-8-yl)pyridin-2(1H)-one hydrochloride] |
| 8.9 nM | Cn1c2c(c3ccc(-n4ccc(OCc5ccccc5)cc4=O)cc31)CCNCC2 [Example 43, 4-(Benzyloxy)-1-(6-methyl-1,2,3,4,5,6-hexahydroazepino[4,5-b]indol-8-yl)pyridin-2(1H)-one hydrochloride] |
| 26 nM | Cc1ccc(COc2ccn(-c3ccc4c5c(n(C)c4c3)CCNCC5)c(=O)c2)cn1 [Example 45, 1-(6-Methyl-1,2,3,4,5,6-hexahydroazepino[4,5-b]indol-8-yl)-4-((6-methylpyridin-3-yl)methoxy)pyridin-2(1H)-one dihydrochloride] |
| 7.4 nM | Cn1c2c(c3ccc(-n4ccc(OCc5ccc(Cl)cn5)cc4=O)cc31)CCNCC2 [Example 50, 4-((5-Chloropyridin-2-yl)methoxy)-1-(6-methyl-1,2,3,4,5,6-hexahydroazepino[4,5-b]indol-8-yl)pyridin-2(1H)-one hydrochloride] |
| 24 nM | Cn1c2c(c3ccc(-n4ccc(OCc5ccc(Cl)cc5Cl)cc4=O)cc31)CCNCC2 [Example 51, 4-(2,4-Dichlorobenzyloxy)-1-(6-methyl-1,2,3,4,5,6-hexahydroazepino[4,5-b]indol-8-yl)pyridin-2(1H)-one] |
| 7.8 nM | Cn1c2c(c3ccc(-n4ccc(OCc5ccc(F)cc5F)cc4=O)cc31)CCNCC2 [Example 52, 4-(2,4-Difluorobenzyloxy)-1-(6-methyl-1,2,3,4,5,6-hexahydroazepino[4,5-b]indol-8-yl)pyridin-2(1H)-one hydrochloride] |
| 12 nM | Cn1c2c(c3ccc(-n4ccc(OCc5ccc(Cl)cc5F)cc4=O)cc31)CCNCC2 [Example 55, 4-(4-Chloro-2-fluorobenzyloxy)-1-(6-methyl-1,2,3,4,5,6-hexahydroazepino[4,5-b]indol-8-yl)pyridin-2(1H)-one hydrochloride] |
| 7.3 nM | Cn1c2c(c3ccc(-n4ccc(OCc5ccc(F)cc5)cc4=O)cc31)CCNCC2 [Example 57, 4-(4-Fluorobenzyloxy)-1-(6-methyl-1,2,3,4,5,6-hexahydroazepino[4,5-b]indol-8-yl)pyridin-2(1H)-one hydrochloride] |
| 163 nM | Cn1c2c(c3ccc(-n4ccc(-c5ccc(C(F)(F)F)nc5)nc4=O)cc31)CCNCC2 [Example 58, 1-(6-Methyl-1,2,3,4,5,6-hexahydroazepino[4,5-b]indol-8-yl)-4-(6-(trifluoromethyl)pyridin-3-yl)pyrimidin-2(1H)-one hydrochloride] |
| 11 nM | Cn1c2c(c3ccc(-n4ccc(OCc5ccc(Cl)cc5Cl)cc4=O)cc31)CNCCC2 [Example 65, 4-(2,4-Dichlorobenzyloxy)-1-(6-methyl-1,2,3,4,5,6-hexahydroazepino[4,3-b]indol-8-yl)pyridin-2(1H)-one hydrochloride] |
| 13 nM | Cn1c2c(c3ccc(-n4ccc(OCc5ccc(F)cc5F)cc4=O)nc31)CCNCC2 [Example 83, 4-(2,4-Difluorobenzyloxy)-1-(10-methyl-5,6,7,8,9,10-hexahydropyrido[3′,2′:4,5]pyrrolo[2,3-d]azepin-2-yl)pyridin-2(1H)-one hydrochloride] |
| 11 nM | Cn1c2c(c3ccc(-n4ccc(OCc5ccc(Cl)cc5F)cc4=O)nc31)CCNCC2 [Example 84, 4-(4-Chloro-2-fluorobenzyloxy)-1-(10-methyl-5,6,7,8,9,10-hexahydropyrido[3′,2′:4,5]pyrrolo[2,3-d]azepin-2-yl)pyridin-2(1H)-one hydrochloride] |
| 11 nM | Cn1c2c(c3ccc(-n4ccc(OCc5ccc(Cl)cn5)cc4=O)nc31)CCNCC2 [Example 85, 4-((5-Chloropyridin-2-yl)methoxy)-1-(10-methyl-5,6,7,8,9,10-hexahydropyrido[3′,2′:4,5]pyrrolo[2,3-d]azepin-2-yl)pyridin-2(1H)-one hydrochloride] |
| 16 nM | Cn1c2c(c3ccc(-n4ccc(OCc5ccccc5)cc4=O)nc31)CCN(C1CCC1)CC2 [Example 86, 4-(Benzyloxy)-1-(7-cyclobutyl-10-methyl-5,6,7,8,9,10-hexahydropyrido[3′,2′:4,5]pyrrolo[2,3-d]azepin-2-yl)pyridin-2(1H)-one hydrochloride] |
| 6.9 nM | CCN1CCc2c(n(C)c3nc(-n4ccc(OCc5ccccc5)cc4=O)ccc23)CC1 [Example 87, 4-(Benzyloxy)-1-(7-ethyl-10-methyl-5,6,7,8,9,10-hexahydropyrido[3′,2′:4,5]pyrrolo[2,3-d]azepin-2-yl)pyridin-2(1H)-one hydrochloride] |
| 8.7 nM | CN1CCc2c(n(C)c3nc(-n4ccc(OCc5ccccc5)cc4=O)ccc23)CC1 [Example 88, 4-(Benzyloxy)-1-(7,10-dimethyl-5,6,7,8,9,10-hexahydropyrido[3′,2′:4,5]pyrrolo[2,3-d]azepin-2-yl)pyridin-2(1H)-one hydrochloride] |
| 15 nM | Cn1c2c(c3ccc(-n4ccc(OCc5ccc(F)cn5)cc4=O)nc31)CNCCC2 [Example 91, 4-((5-Fluoropyridin-2-yl)methoxy)-1-(10-methyl-5,6,7,8,9,10-hexahydropyrido[3′,2′:4,5]pyrrolo[3,2-c]azepin-2-yl)pyridin-2(1H)-one hydrochloride] |
